Data from US9932314B2, “Pyrazole compounds and their use as T-type calcium channel blockers” (IDORSIA PHARMACEUTICALS LTD, priority 2015, dated 2018).

Each compound was assayed against T1, voltage-dependent T-type calcium channel subunit alpha-1G (Cav3.2) (Homo sapiens, UniProt O95180) (assay: FLIPR calcium flux assay, HEK293 cells recombinantly expressing Cav3.2). Settings: Cav3.2-channel, Fluo-4-AM, 3 min incubation, stimulation with 10 mM CaCl2.
T1 construct: expressed in transfected cells; host or cells: HEK293
Format: cell-based
How it was run: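 Calcium influx was triggered by adding CaCl2 to 10 mM final, 3 min after compounds in tetraethylammonium-based buffer, pH 7.2, reached Fluo-4-AM-loaded recombinant HEK293 cells. The integrated kinetic fluorescence signal per concentration gave concentration-response curves by non-linear sigmoidal regression.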

T1 sequence (O95180 whole entry): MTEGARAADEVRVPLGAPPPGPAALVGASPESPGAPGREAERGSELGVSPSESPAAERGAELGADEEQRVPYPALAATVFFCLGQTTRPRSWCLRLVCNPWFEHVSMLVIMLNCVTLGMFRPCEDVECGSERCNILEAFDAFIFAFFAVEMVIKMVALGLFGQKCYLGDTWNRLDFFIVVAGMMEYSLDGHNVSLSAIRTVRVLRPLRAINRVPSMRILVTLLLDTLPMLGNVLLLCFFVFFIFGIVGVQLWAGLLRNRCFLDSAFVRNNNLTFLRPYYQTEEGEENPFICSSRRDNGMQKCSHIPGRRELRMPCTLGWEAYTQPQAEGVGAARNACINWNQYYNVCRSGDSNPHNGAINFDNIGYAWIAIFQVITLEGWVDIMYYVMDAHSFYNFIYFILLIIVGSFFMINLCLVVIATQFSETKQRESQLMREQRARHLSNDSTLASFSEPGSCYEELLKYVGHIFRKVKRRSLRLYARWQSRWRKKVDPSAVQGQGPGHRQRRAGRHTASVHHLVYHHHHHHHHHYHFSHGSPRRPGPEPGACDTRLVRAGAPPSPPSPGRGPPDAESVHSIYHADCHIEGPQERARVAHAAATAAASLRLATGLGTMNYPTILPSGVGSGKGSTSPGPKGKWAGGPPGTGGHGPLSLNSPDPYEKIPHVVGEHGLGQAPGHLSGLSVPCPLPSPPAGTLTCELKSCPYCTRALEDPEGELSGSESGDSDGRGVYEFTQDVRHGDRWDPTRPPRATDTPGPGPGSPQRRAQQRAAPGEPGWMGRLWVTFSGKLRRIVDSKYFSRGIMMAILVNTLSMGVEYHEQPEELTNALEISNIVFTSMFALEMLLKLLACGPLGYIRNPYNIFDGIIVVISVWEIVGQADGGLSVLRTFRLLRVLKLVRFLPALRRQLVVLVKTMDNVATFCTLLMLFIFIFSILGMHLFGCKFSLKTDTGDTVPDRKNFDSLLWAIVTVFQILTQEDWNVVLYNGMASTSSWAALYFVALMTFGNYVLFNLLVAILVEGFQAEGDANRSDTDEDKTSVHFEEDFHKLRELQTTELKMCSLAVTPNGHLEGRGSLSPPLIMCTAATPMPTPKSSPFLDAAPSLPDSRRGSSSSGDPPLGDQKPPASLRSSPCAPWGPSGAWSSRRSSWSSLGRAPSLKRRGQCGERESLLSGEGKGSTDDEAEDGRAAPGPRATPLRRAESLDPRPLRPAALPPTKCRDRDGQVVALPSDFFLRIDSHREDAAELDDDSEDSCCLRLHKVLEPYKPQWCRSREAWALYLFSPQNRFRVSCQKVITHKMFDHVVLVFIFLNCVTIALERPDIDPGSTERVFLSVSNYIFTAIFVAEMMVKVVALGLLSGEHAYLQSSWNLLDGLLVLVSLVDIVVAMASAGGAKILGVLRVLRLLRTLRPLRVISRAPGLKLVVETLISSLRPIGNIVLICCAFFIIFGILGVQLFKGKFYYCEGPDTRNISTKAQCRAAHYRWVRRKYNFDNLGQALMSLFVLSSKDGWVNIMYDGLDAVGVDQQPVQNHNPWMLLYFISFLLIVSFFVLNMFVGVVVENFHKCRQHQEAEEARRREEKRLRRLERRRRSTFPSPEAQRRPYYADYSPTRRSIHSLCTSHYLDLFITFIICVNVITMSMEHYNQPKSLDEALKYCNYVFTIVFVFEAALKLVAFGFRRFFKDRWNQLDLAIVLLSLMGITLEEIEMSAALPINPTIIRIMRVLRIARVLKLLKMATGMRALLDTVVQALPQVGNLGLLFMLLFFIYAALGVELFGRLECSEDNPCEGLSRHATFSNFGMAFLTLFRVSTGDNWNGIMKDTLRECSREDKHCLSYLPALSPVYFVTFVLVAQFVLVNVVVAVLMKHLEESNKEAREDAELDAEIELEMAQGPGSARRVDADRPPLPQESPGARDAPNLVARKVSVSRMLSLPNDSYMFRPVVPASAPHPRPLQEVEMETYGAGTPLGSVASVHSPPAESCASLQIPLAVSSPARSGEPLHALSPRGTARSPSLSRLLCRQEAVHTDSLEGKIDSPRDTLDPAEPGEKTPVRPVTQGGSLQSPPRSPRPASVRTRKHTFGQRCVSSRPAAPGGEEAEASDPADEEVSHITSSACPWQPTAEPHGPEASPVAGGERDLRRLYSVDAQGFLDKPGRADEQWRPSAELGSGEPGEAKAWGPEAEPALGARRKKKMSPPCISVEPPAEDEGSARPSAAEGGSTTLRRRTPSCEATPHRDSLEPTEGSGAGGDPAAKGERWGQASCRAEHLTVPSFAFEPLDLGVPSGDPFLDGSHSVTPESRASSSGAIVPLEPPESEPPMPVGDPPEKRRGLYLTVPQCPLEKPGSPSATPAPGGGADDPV

**Q.** `O=C(Cc1ccc(OC2CC2)cc1)Nc1ccn(Cc2ccc(F)cc2)n1` [Example 63, 2-(4-Cyclopropoxy-phenyl)-N-[1-(4-fluoro-benzyl)-1H-pyrazol-3-yl]-acetamide] was tested. Which IC50 did it give?
**A.** 38 nM

**Q.** With `N#Cc1ccc(Cn2ccc(NC(=O)Cc3ccc(OCC4(F)COC4)cc3)n2)cc1` [Example 256, N-[1-(4-Cyano-benzyl)-1H-pyrazol-3-yl]-2-[4-(3-fluoro-oxetan-3-ylmethoxy)-phenyl]-acetamide] as the compound, how does the IC50 read?
**A.** 251 nM

**Q.** `Cn1ccc2ccc(CC(=O)Nc3ccn(Cc4ccc(F)c(F)c4)n3)cc21` [Example 221, N-[1-(3,4-Difluoro-benzyl)-1H-pyrazol-3-yl]-2-(1-methyl-1H-indol-6-yl)-acetamide] was tested. Which IC50 did it give?
**A.** 5 nM

**Q.** For `CC1(COc2ccc(CC(=O)Nc3ccn(Cc4ccc(F)c(C#N)c4)n3)cc2)COC1` [Example 280, N-[1-(3-Cyano-4-fluoro-benzyl)-1H-pyrazol-3-yl]-2-[4-(3-methyl-oxetan-3-ylmethoxy)-phenyl]-acetamide], which IC50 is on record?
**A.** 138 nM

**Q.** With `Cc1ccc(Cn2ccc(NC(=O)Cc3ccc(N4CCC(F)(F)C4)nc3)n2)nc1C#N` [Example 366, N-[1-(6-Cyano-5-methyl-pyridin-2-ylmethyl)-1H-pyrazol-3-yl]-2-[6-(3,3-difluoro-pyrrolidin-1-yl)-pyridin-3-yl]-acetamide] as the compound, how does the IC50 read?
**A.** 147 nM

**Q.** Which IC50 does the source give for `N#Cc1ccc(Cn2ccc(NC(=O)Cc3ccc(OC4CC(F)(F)C4)cc3)n2)nc1` [Example 274, N-[1-(5-Cyano-pyridin-2-ylmethyl)-1H-pyrazol-3-yl]-2-[4-(3,3-difluoro-cyclobutoxy)-phenyl]-acetamide] here?
**A.** 133 nM

**Q.** Which IC50 does the source give for `N#Cc1ccc(Cn2ccc(NC(=O)Cc3ccc(N4CC(F)(F)C4)nc3)n2)cc1` [Example 144, N-[1-(4-Cyano-benzyl)-1H-pyrazol-3-yl]-2-[6-(3,3-difluoro-azetidin-1-yl)-pyridin-3-yl]-acetamide] here?
**A.** 160 nM

**Q.** How did the IC50 turn out when `CN(C)c1ccc(CC(=O)Nc2ccn(Cc3ccc(F)c(OC(F)(F)F)c3)n2)cc1` [Example 22, 2-(4-Dimethylamino-phenyl)-N-[1-(4-fluoro-3-trifluoromethoxy-benzyl)-1H-pyrazol-3-yl]-acetamide] was run?
**A.** 5 nM

**Q.** How did the IC50 turn out when `CC(C)(C)c1ccc(CC(=O)Nc2ccn(Cc3cc(C#N)c(F)cn3)n2)cc1` [Example 400, 2-(4-tert-Butyl-phenyl)-N-[1-(4-cyano-5-fluoro-pyridin-2-ylmethyl)-1H-pyrazol-3-yl]-acetamide] was run?
**A.** 49 nM

**Q.** For `COC1(c2ccc(CC(=O)Nc3ccn(Cc4ccc(F)c(F)c4)n3)cn2)COC1` [Example 258, N-[1-(3,4-Difluoro-benzyl)-1H-pyrazol-3-yl]-2-[6-(3-methoxy-oxetan-3-yl)-pyridin-3-yl]-acetamide], which IC50 is on record?
**A.** 934 nM

**Q.** Which IC50 does the source give for `CCN(C)c1ccc(CC(=O)Nc2ccn(Cc3ccc(F)cc3)n2)cn1` [Example 48, 2-[6-(Ethyl-methyl-amino)-pyridin-3-yl]-N-[1-(4-fluoro-benzyl)-1H-pyrazol-3-yl]-acetamide] here?
**A.** 138 nM

**Q.** How did the IC50 turn out when `CCN(C)c1ccc(CC(=O)Nc2ccn(Cc3ccc(OC)cc3)n2)cc1` [Example 129, 2-[4-(Ethyl-methyl-amino)-phenyl]-N-[1-(4-methoxy-benzyl)-1H-pyrazol-3-yl]-acetamide] was run?
**A.** 128 nM

**Q.** `Cc1ccc(Cn2ccc(NC(=O)Cc3ccc4c(c3)c(C)cn4C)n2)nc1C#N` [Example 369, N-[1-(6-Cyano-5-methyl-pyridin-2-ylmethyl)-1H-pyrazol-3-yl]-2-(1,3-dimethyl-1H-indol-5-yl)-acetamide] was tested. Which IC50 did it give?
**A.** 64 nM

**Q.** For `Cc1nc(-c2ccc(CC(=O)Nc3ccn(Cc4ccc(F)c(F)c4)n3)cc2)no1` [Example 235, N-[1-(3,4-Difluoro-benzyl)-1H-pyrazol-3-yl]-2-[4-(5-methyl-[1,2,4]oxadiazol-3-yl)-phenyl]-acetamide], which IC50 is on record?
**A.** 42 nM

**Q.** With `O=C(Cc1ccc(C2(O)COC2)cc1)Nc1ccn(Cc2ccc(F)c(F)c2)n1` [Example 226, N-[1-(3,4-Difluoro-benzyl)-1H-pyrazol-3-yl]-2-[4-(3-hydroxy-oxetan-3-yl)-phenyl]-acetamide] as the compound, how does the IC50 read?
**A.** 25 nM

**Q.** Which IC50 does the source give for `CO[C@H](C)c1ccc(CC(=O)Nc2ccn(Cc3ccc(F)c(F)c3)n2)cc1` (single isomer, unassigned) [Example 232] here?
**A.** 5.8 nM

**Q.** With `CN(C)c1ccc(CC(=O)Nc2ccn(Cc3ccc(Cl)c(OC(F)(F)F)c3)n2)cc1` [Example 34, N-[1-(4-Chloro-3-trifluoromethoxy-benzyl)-1H-pyrazol-3-yl]-2-(4-dimethylamino-phenyl)-acetamide] as the compound, how does the IC50 read?
**A.** 91 nM

**Q.** `Cc1cc(Cn2ccc(NC(=O)Cc3ccc(C(C)C)cc3)n2)ncc1C#N` [Example 169, N-[1-(5-Cyano-4-methyl-pyridin-2-ylmethyl)-1H-pyrazol-3-yl]-2-(4-isopropyl-phenyl)-acetamide] was tested. Which IC50 did it give?
**A.** 104 nM

**Q.** For `CN(C)c1ccc(CC(=O)Nc2ccn(Cc3cc(F)c(F)c(F)c3)n2)cc1` [Example 24, 2-(4-Dimethylamino-phenyl)-N-[1-(3,4,5-trifluoro-benzyl)-1H-pyrazol-3-yl]-acetamide], which IC50 is on record?
**A.** 13 nM

**Q.** `N#Cc1c(F)cc(Cn2ccc(NC(=O)Cc3ccc(C4(C(F)(F)F)CC4)cc3)n2)cc1F` [Example 350, N-[1-(4-Cyano-3,5-difluoro-benzyl)-1H-pyrazol-3-yl]-2-[4-(1-trifluoromethyl-cyclopropyl)-phenyl]-acetamide] was tested. Which IC50 did it give?
**A.** 69 nM

**Q.** For `COc1ccc(Cn2ccc(NC(=O)Cc3ccc(N4CCCC4)nc3)n2)cc1` [Example 178, N-[1-(4-Methoxy-benzyl)-1H-pyrazol-3-yl]-2-(6-pyrrolidin-1-yl-pyridin-3-yl)-acetamide], which IC50 is on record?
**A.** 99 nM

**Q.** `CC(C)c1ccc(CC(=O)Nc2ccn(Cc3ccc(F)c(F)c3)n2)cn1` [Example 88, N-[1-(3,4-Difluoro-benzyl)-1H-pyrazol-3-yl]-2-(6-isopropyl-pyridin-3-yl)-acetamide] was tested. Which IC50 did it give?
**A.** 109 nM

**Q.** Which IC50 does the source give for `N#Cc1ccc(Cn2ccc(NC(=O)Cc3ccc(N4CCCC4)nc3)n2)cc1F` [Example 275, N-[1-(4-Cyano-3-fluoro-benzyl)-1H-pyrazol-3-yl]-2-(6-pyrrolidin-1-yl-pyridin-3-yl)-acetamide] here?
**A.** 14 nM

**Q.** `CN(C)c1ccc(CC(=O)Nc2ccn(Cc3ccc(OC(F)(F)F)cc3)n2)cn1` [Example 37, 2-(6-Dimethylamino-pyridin-3-yl)-N-[1-(4-trifluoromethoxy-benzyl)-1H-pyrazol-3-yl]-acetamide] was tested. Which IC50 did it give?
**A.** 29 nM

**Q.** Which IC50 does the source give for `O=C(Cc1ccc(-c2ncccn2)cc1)Nc1ccn(Cc2ccc(F)cc2)n1` [Example 85, N-[1-(4-Fluoro-benzyl)-1H-pyrazol-3-yl]-2-(4-pyrimidin-2-yl-phenyl)-acetamide] here?
**A.** 301 nM

**Q.** Which IC50 does the source give for `CC(C)c1ccc(CC(=O)Nc2ccn(Cc3ccc(Cl)cc3)n2)cc1` [Example 1, N-[1-(4-Chloro-benzyl)-1H-pyrazol-3-yl]-2-(4-isopropyl-phenyl)-acetamide] here?
**A.** 14 nM

**Q.** `N#Cc1c(F)cc(Cn2ccc(NC(=O)Cc3ccc(N4CCC(F)(F)C4)nc3)n2)cc1F` [Example 349, N-[1-(4-Cyano-3,5-difluoro-benzyl)-1H-pyrazol-3-yl]-2-[6-(3,3-difluoro-pyrrolidin-1-yl)-pyridin-3-yl]-acetamide] was tested. Which IC50 did it give?
**A.** 23 nM

**Q.** `O=C(Cc1ccc(N2CCC(F)(F)C2)cc1)Nc1ccn(Cc2ccc(F)c(F)c2)n1` [Example 67, N-[1-(3,4-Difluoro-benzyl)-1H-pyrazol-3-yl]-2-[4-(3,3-difluoro-pyrrolidin-1-yl)-phenyl]-acetamide] was tested. Which IC50 did it give?
**A.** 3.4 nM

**Q.** `N#Cc1ccc(Cn2ccc(NC(=O)Cc3ccc(C4CC(F)(F)C4)cc3)n2)cc1F` [Example 288, N-[1-(4-Cyano-3-fluoro-benzyl)-1H-pyrazol-3-yl]-2-[4-(3,3-difluoro-cyclobutyl)-phenyl]-acetamide] was tested. Which IC50 did it give?
**A.** 4.7 nM

**Q.** For `CC1(C)Cc2ccc(CC(=O)Nc3ccn(Cc4ccc(C#N)cn4)n3)cc2O1` [Example 380, N-[1-(5-Cyano-pyridin-2-ylmethyl)-1H-pyrazol-3-yl]-2-(2,2-dimethyl-2,3-dihydro-benzofuran-6-yl)-acetamide], which IC50 is on record?
**A.** 214 nM

**Q.** How did the IC50 turn out when `O=C(Cc1ccc(N2CCC2)nc1)Nc1ccn(Cc2ccc(F)c(F)c2)n1` [Example 99, 2-(6-Azetidin-1-yl-pyridin-3-yl)-N-[1-(3,4-difluoro-benzyl)-1H-pyrazol-3-yl]-acetamide] was run?
**A.** 48 nM

**Q.** How did the IC50 turn out when `N#Cc1cc(Cn2ccc(NC(=O)Cc3ccc(N4CCC(F)(F)C4)nc3)n2)ccc1F` [Example 306, N-[1-(3-Cyano-4-fluoro-benzyl)-1H-pyrazol-3-yl]-2-[6-(3,3-difluoro-pyrrolidin-1-yl)-pyridin-3-yl]-acetamide] was run?
**A.** 17 nM

**Q.** With `CC(C)c1ccc(CC(=O)Nc2ccn(Cc3ccc(OC4CC4)cc3)n2)cc1` [Example 195, N-[1-(4-Cyclopropoxy-benzyl)-1H-pyrazol-3-yl]-2-(4-isopropyl-phenyl)-acetamide] as the compound, how does the IC50 read?
**A.** 47 nM

**Q.** `Cc1ccc(Cn2ccc(NC(=O)Cc3ccc(OC4CC(F)(F)C4)cc3)n2)nc1C#N` [Example 374, N-[1-(6-Cyano-5-methyl-pyridin-2-ylmethyl)-1H-pyrazol-3-yl]-2-[4-(3,3-difluoro-cyclobutoxy)-phenyl]-acetamide] was tested. Which IC50 did it give?
**A.** 107 nM

**Q.** For `CC1(COc2ccc(CC(=O)Nc3ccn(Cc4ccc(C#N)c(F)c4)n3)cc2)CC(F)(F)C1` [Example 290, N-[1-(4-Cyano-3-fluoro-benzyl)-1H-pyrazol-3-yl]-2-[4-(3,3-difluoro-1-methyl-cyclobutylmethoxy)-phenyl]-acetamide], which IC50 is on record?
**A.** 39 nM

**Q.** How did the IC50 turn out when `N#Cc1ccc(Cn2ccc(NC(=O)Cc3ccc(OCC4COC4)cc3)n2)nc1` [Example 287, N-[1-(5-Cyano-pyridin-2-ylmethyl)-1H-pyrazol-3-yl]-2-[4-(oxetan-3-ylmethoxy)-phenyl]-acetamide] was run?
**A.** 9480 nM

**Q.** Which IC50 does the source give for `N#Cc1ccc(Cn2ccc(NC(=O)Cc3ccc(N4CC(F)C4)nc3)n2)nc1` [Example 159, N-[1-(5-Cyano-pyridin-2-ylmethyl)-1H-pyrazol-3-yl]-2-[6-(3-fluoro-azetidin-1-yl)-pyridin-3-yl]-acetamide] here?
**A.** 1180 nM

**Q.** Which IC50 does the source give for `N#Cc1ccc(Cn2ccc(NC(=O)Cc3ccc(OCC4CC(F)(F)C4)cc3)n2)cc1` [Example 299, N-[1-(4-Cyano-benzyl)-1H-pyrazol-3-yl]-2-[4-(3,3-difluoro-cyclobutylmethoxy)-phenyl]-acetamide] here?
**A.** 37 nM
